Our source for the melting point values is a melting point compilation (Tetko et al.; mined from patent text by program, amines drawn as free bases though some values may be those of a salt).

In turn, `ONc1cc(Cl)ccc1Cl` registered a melting point of 124 °C.
To `COc1ccc(-c2nc(C(=O)Nc3nccs3)c(-c3ccc(C)cc3)[nH]2)c2ccccc12` belongs > 250 °C; to `C=CC1(O)CCC2(C)C(CCC3C2CCC2(C)C(OC)CCC32)C1` (stereo not given), 104 to 111 °C.
To `CCc1ccc(C(=O)NCc2ccc3c(c2)C(=O)N([C@@]2(C)CCC(=O)NC2=O)C3=O)cc1` belongs 160 to 162 °C; to `CCOC(=O)N1CCN(c2ccc3nc4[nH]c(=O)[nH]c4cc3c2)CC1`, > 300 °C.
Under `OC(=S)c1ccc2cccnc2c1O` stands 174 to 175 °C; under `CCCC(Cc1ccc(Cl)cc1)C1(S(=O)(=O)c2ccc(OC)cc2)SC(=O)NC1=O` (stereo not given), 172 to 174 °C; under `Cc1ccccc1C(=O)CC(C#N)C#N`, 92 to 93 °C.
Take `Cn1c(C(F)(F)F)cc(=O)n(-c2cc(OCC#CCOc3ccccc3)c(Cl)cc2F)c1=O`: the melting point was in the range of 142 to 144 °C.
In turn, `N#CC(C#N)=CN(Cc1ccc(Cl)c(Cl)c1)c1cc(C(F)(F)F)cc(C(F)(F)F)c1` returned a melting point of 102 to 103 °C.
To `Cc1c(C(=O)Nc2ccc(N3CCC(N4CCOCC4)CC3)c(Br)c2)cnn1-c1ccc(C(F)(F)F)cc1` belongs 220 to 230 °C.
Under `COc1nc(C)nc(NN)c1Cl` stands 153 to 154 °C; under `COc1ccc(C2C(C(=O)c3ccc(N4CCOCC4)cc3)=C(O)C(=O)N2c2ccc(C)nn2)cc1` (stereo not given), 232 °C.
Under `CCCCCC(C)C(C)c1cc(O)c2c(c1)OC(C)(C)C1=C2CN(CC(N)=O)CC1` (stereo not given) stands 165 to 168 °C; under `CCOC(=O)c1c(C)csc1N/C=C(\C#N)C(=O)OC(C)(C)C`, 144 °C.
`O=C(O)c1ccc(C(F)F)s1`: the melting point lay within 111 to 112 °C.
To `CCN(CC)CCC(=O)Nc1ccc2c(c1)C(=O)c1cc(NC(=O)CCN(CC)CC)ccc1C2=O` belongs 193 °C.
With `COc1ccc(-c2cc3ccccc3s2)cc1`, the melting point was 188 to 190 °C.
To `CCCCCCCCCCCCCC(c1ccccc1)S(=O)(=O)NC(=O)Nc1c(C(C)C)cccc1C(C)C` (stereo not given) belongs 97 to 102 °C; to `O=C(O)CNC(=O)c1ccc([N+](=O)[O-])cc1F`, 156 to 158 °C.
To `CCC(C(C)=CC(CNC(=O)C1=NNC(=O)CC1)=NO)[N+](=O)[O-]` (stereo not given) belongs 129 to 130 °C; to `COc1ccc(C[C@H](NC(=O)OCc2ccccc2)C(=O)N2CCN(CC(=O)OC(C)(C)C)C(=O)[C@@H]2CCCNC(=O)OCc2ccccc2)cc1`, 138 to 140 °C.
To `CCOC(=O)CCSc1nnsc1-c1ccc(F)cc1` belongs 76.5 to 77.5 °C; to `CCOC(=O)c1cnc2c(c(C)nn2CC)c1O`, 91 to 93 °C; to `CC1Cc2cc3c(cc2C(c2ccc([N+](=O)[O-])cc2)=NN1c1nnns1)OCO3` (stereo not given), 109 to 110 °C.
The compound `CCOC(=O)C(=O)c1c[nH]c2c(CC)cccc12` showed a melting point of 152 to 154 °C.
To `O=C1NN=CC1=CNCCC(F)=C(F)F` belongs 126 to 130 °C; to `N#Cc1ccccc1CN1CCSC1=O`, 116 to 117 °C.
As for `COC(=S)c1ccnc(C)n1`, the melting point came to 68 °C.
Under `Nc1cc(Oc2ccc(NC(=O)Nc3ccc(-c4ccncc4)c(C(F)(F)F)c3)cc2)ncn1` stands 131 to 135 °C.
Under `NC(=O)c1ccc([N+](=O)[O-])c(N2CC2)c1` stands 223 to 224 °C; under `O=C(O)Cc1cccc(CNC(=O)C2Cc3ccccc3N2S(=O)(=O)c2ccc(-c3cccc(C(F)(F)F)c3)cc2)c1` (stereo not given), 80 °C.
Under `CCc1cccc(C)c1CNc1nc(C(=O)N2CCCC2)cn2c(C)c(C)nc12` stands 197 °C; under `Cc1c(F)cccc1NC(=O)c1ccc(CN2C(=O)C3(COc4cc5c(cc43)CCO5)c3ccccc32)cc1` (stereo not given), 143 to 144 °C.
`CSc1ccc(-c2cnn(C(C)(C)C)c(=O)c2OCCC(C)C)cc1` came in with a melting point of 153 to 155 °C.

As a reminder, the melting point is the temperature of the solid-liquid transition.
